{"source": "patent US12708676B2", "about": "“Phosphate compounds for detecting neurological disorders” (Amydis, Inc., priority 2018, dated 2026)", "key": {"[1]": {"molecular_target": "amyloid deposits associated with CAA (Homo sapiens, UniProt P05067)", "sequence (P05067 672-711 limits assumed)": "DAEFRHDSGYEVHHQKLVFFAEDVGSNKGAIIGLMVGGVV", "assay": "Example 8: ex vivo staining of human CAA brain tissue", "type": "binding", "source_text": "Post-mortem brain tissue from patients diagnosed with CAA were examined to de-risk the translation from the limited robust preclinical animal models to humans. This study was designed to understand the fundamental basis of fluorescently detecting amyloids using human tissue. […] Human CAA brain tissue and healthy control brain tissue was acquired (University of California, San Diego, CA). […] All CAA patients were female and ranged in age from 70-93 years. Control brains were obtained from cognitively normal patients that ranged in age from 82-94 years from both male and female donors."}, "[2]": {"test_system": "Aβ", "assay": "Example 4: detection of Aβ in the retina of a TBI (blast) mouse model", "type": "in vivo", "conditions": "after Compound 9 intravenously, example in present tense", "procedure": "This example is conducted to determine whether Compound 9 detects Aβ in the retina of a TBI mouse model.\nBlast model mice 24 hours after injury and a non-injured mouse are administered Compound 9 intravenously. Mice retinas are scanned by scanning laser ophthalmoscopy (SLO).\nAlternatively, or in addition to retinal scanning, retinal tissues are removed and stained with an anti-Aβ antibody (6E10)."}}}
{"molecule": "N#C/C(=C\\c1ccc2cc(N3CCCCC3)ccc2c1)C(=O)NCCOCCOCCO", "note": "[Compound 7, (E)-2-cyano-N-(2-(2-(2-hydroxyethoxy)ethoxy)ethyl)-3-(6-(piperidin-1-yl)naphthalen-2-yl)acrylamide]", "values": [{"measurement": "Staining", "setting": "[1]; healthy control human brains", "value": "absent"}, {"measurement": "Staining of amyloid deposits", "setting": "[1]; human CAA brains", "value": "successfully stains amyloid deposits associated with CAA"}, {"measurement": "Fluorescent labelling of retinal deposits", "setting": "[2]; mouse with blast injury", "value": "fluorescently labels retinal deposits that are visible upon fluorescent activation"}, {"measurement": "Fluorescent enhancement in retinal tissue", "setting": "[2]; uninjured mouse", "value": "does not display any fluorescent enhancement"}]}
